Reference: PMC9284540 (Journal of Molecular Biology, 2022)

Experiments:
[1] = molecular target: T1, SARS-CoV-2^A358V/F360N MD (Severe acute respiratory syndrome coronavirus 2, UniProt P0DTD1, A1176V/F1178N); type: binding
[2] = molecular target: T2, SARS-CoV-2^F360N/D361S MD (Severe acute respiratory syndrome coronavirus 2, UniProt P0DTD1, D1179S/F1178N); type: binding
[3] = molecular target: T1, SARS-CoV-2^A358V/F360N MD; type: biochemical
[4] = molecular target: T2, SARS-CoV-2^F360N/D361S MD; type: biochemical

Compound: N#C[C@@]1(c2ccc3c(N)ncnn23)O[C@H](CO)[C@@H](O)[C@H]1O [GS-441524]
- exchange regime on NMR time scale [1]: fast exchange regime
- exchange regime on NMR time scale [2]: fast exchange regime
- Initial substrate decay rate k [3]: 0.127 ± 0.01 µM/min
- decrease of the k value vs free form [3]: 33.2%
- Initial substrate decay rate k [4]: 0.160 ± 0.007 µM/min
- decrease of the k value vs free form [4]: 24.9%
